In patent US10219528B2 (Zinpro Corporation, priority 2016, dated 2019):
Values belong to the molecule of their own block, whether it stands above or below them.

Assays:
[1] = Solubility test of folate precipitates suspended in water at pH 7.0, filtered, insoluble solid weighed; assay type: physicochemical
Text: In the parent application is was noticed that when soluble metal salts were mixed with folic acid there would be a precipitate forming after the addition of the metal salt. This precipitate was isolated and its solubility measured. According to the following procedure: The precipitates were suspended in water and the pH was adjusted to 7.0 with dilute HCl. […] The solids were dried and weighed to determine the mass of insoluble product. Very similar molar amounts of folic acid are used in this procedure.

[2] = Sheep serum folic acid concentrations after feeding test articles
Text: The animals were separated into groups and housed in a barn with access to a pasture. The dosing regime was as follows. […] The sheep were fed the test feeds for fourteen (14) days.
Example 22 is a sheep study using the protocol of Example 20 but with the Mn and iron mixtures of Example 5 and 7, respectively. […] In this test the ewes were fed the concentrate metal folate mixture dried without any carrier but mixed on ground corn for feeding.
The liquid mixtures were then sprayed directly on ground corn.

[3] = suspended in water at pH 7.0, stirred, filtered, solid dried and weighed

Insoluble % ([1]; 15 min, pH 7): 0.33% | solubility at pH of 7 ([1]; pH 7): soluble
Molecule: Nc1nc2ncc(CNc3ccc(C(=O)N[C@@H](CCC(=O)O)C(=O)O)cc3)nc2c(=O)[nH]1 [Folic Acid, folic acid, reference compound]

Molecule: Iron folate
Insoluble Mass ([1]; suspended in 100 mL water, pH adjusted to 7.0, stirred, filtered, solid dried and weighed, about 3 g folate equivalents (6.8 mmols)): 3.74 g | Insoluble % [1, 3]: 96% | Insoluble % ([1]; suspended in water at pH 7.0, stirred, filtered, solid dried and weighed, listed as Iron folate): 96%

Molecule: Zinc Folate Mixture [Example 1]
serum folic acid concentrations ([2]; 30 mg folic acid equivalent per head per day mixed with ground corn, 14 days, pre vs post treatment (FIGS. 1-4), mean or median): increased the greatest | blood serum levels of folic acid compared to folic acid alone ([2]; comparison with folic acid alone): performed better than folic acid alone

Molecule: Zinc folate
Insoluble % [1, 3]: 99% | Insoluble % ([1]; suspended in water at pH 7.0, stirred, filtered, solid dried and weighed, listed as Zinc folate): 99%
